Measurements taken from patent publication US4997454A, “Method for making uniformly-sized particles from insoluble compounds” (The University of Rochester, priority 1989, dated 1991).
In brackets after ≈: the same amount, converted by molar mass.

| Compound | solubility in water | solubility (solubility; absolute ethanol, organic solvent or mixture) [µg/mL] | solubility (solubility; water) [µg/mL] |
| --- | --- | --- | --- |
| CCOC(=O)c1c(I)cc(I)c(NC(=O)CCCCC(=O)Nc2c(I)cc(I)c(C(=O)OCC)c2I)c1I [IDE, iodipamide ethyl ester] | 10^-5 M | – | – |
| O=C1NC(=O)[C@H]2[C@H]3C=C[C@@H]([C@@H]12)[C@@H]1[C@H]2C(=O)NC(=O)[C@H]2[C@H]31 [mitindomide] | – | < 4 | 70 (≈ 257 µM) |
